Measurements: patent publication US20130102631A1, “NOVEL MICROBIOCIDAL DIOXIME ETHER DERIVATIVES” (SYNGENTA CROP PROTECTION LLC, priority 2010, published 2013)

How the values were obtained:
Gaeumannomyces graminis = Gaeumannomyces graminis / liquid culture (take-all of cereals); assay type: cell-based; conditions: at ≦200 ppm, liquid culture PDB, inhibition of growth photometrically 4-5 days after application, read-out: control of Gaeumannomyces graminis
Procedure: Gaeumannomyces graminis/Liquid Culture (Take-All of Cereals): Mycelial fragments of the fungus from cryogenic storage were directly mixed into nutrient broth (PDB potato dextrose broth). After placing a DMSO solution of test compound into a 96-well microtiter plate, the nutrient broth containing the fungal spores is added. The test plates were incubated at 24° C. and the inhibition of growth was determined photometrically 4-5 days after application. […]-2.509; 5.561; 2.561; P.57; 2.513; 2.559; 2.558; 2.557; 2.556; 2.555; 2.374; 2.553; 2.552; 2.551 (fraction B); 2.551 (fraction A); 2.539; 2.533; 2.528; 2.526; 2.525 (fraction B); 2.525 (fraction A); 2.524; 2.523; 2.521; 2.520; 2.519; 2.510; 2.518; 2.516; 2.514; E/E-5.167; E/E-3.002; 2.512; E/E-2.508

[1] = tested on: Phaeosphaeria nodorum (Septoria nodorum); assay: Phaeosphaeria nodorum (Septoria nodorum) / wheat / leaf disc preventative (glume blotch); assay type: in vivo; conditions: Parastagonospora nodorum, foliar, wheat leaf segments cv Kanzler, inoculated 2 days after application, assessed 5-7 days after application
Procedure: Phaeosphaeria nodorum (Septoria nodorum)/Wheat/Leaf Disc Preventative (Glume Blotch): Wheat leaf segments cv Kanzler were placed on agar in a 24-well plate and sprayed with formulated test compound diluted in water at an application rate of 200 ppm. The leaf disks are inoculated with a spore suspension of the fungus 2 days after application. The inoculated test leaf disks are incubated at 20° C. and 75% relative humidity under a light regime of 12/12 h (light/dark) in a climate cabinet and the activity of a compound is assessed as percent disease control compared to untreated when an appropriate level of disease damage appears in untreated check leaf disks (5-7 days after application). […]-2.508; 5.561; 2.561; E/E-2.208; P.57; 2.513; 2.559; 2.558; 2.557; 2.556; 2.555; 2.374; 2.544; 2.541; 2.539; 2.537; 2.536; 2.535; 2.533; 2.530; 2.526; 2.519; 2.510; 2.516; 2.514; E/E-5.167; E/E-3.002; 2.512

[2] = tested on: Mycosphaerella arachidis (Cercospora arachidicola); assay: Mycosphaerella arachidis (Cercospora arachidicola) / liquid culture (early leaf spot); assay type: cell-based; conditions: at ≦200 ppm, liquid culture PDB, inhibition of growth photometrically 4-5 days after application, read-out: control of Mycosphaerella arachidis
Procedure: Mycosphaerella arachidis (Cercospora arachidicola)/Liquid Culture (Early Leaf Spot): Conidia of the fungus from cryogenic storage were directly mixed into nutrient broth (PDB potato dextrose broth). After placing a DMSO solution of test compound into a 96-well microtiter plate, the nutrient broth containing the fungal spores was added. The test plates are incubated at 24° C. and the inhibition of growth was determined photometrically 4-5 days after application. […]-2.509; 5.561; 2.561; P.57; 2.513; 2.559; 2.558; 2.557; 2.556; 2.555; 2.374; 2.553; 2.552; 2.551 (fraction B); 2.551 (fraction A); 2.544; 2.541; 2.539; 2.537; 2.536; 2.533; 2.532; 2.531; 2.530; 2.528; 2.526; 2.525 (fraction B); 2.525 (fraction A); 2.524; 2.520; 2.519; 2.510; 2.518; 2.517; 2.516; 2.514; […].002; 2.512; 2.511; 2.514

[3] = tested on: Blumeria graminis f. sp. tritici (Erysiphe graminis f. sp. tritici); assay: Blumeria graminis f. sp. tritici / wheat / leaf disc preventative (powdery mildew on wheat); assay type: in vivo; conditions: foliar, wheat leaf segments cv. Kanzler, inoculated 1 day after application, assessed 6-8 days after application
Procedure: Blumeria graminis f. sp. tritici (Erysiphe graminis f. sp. tritici)/Wheat/Leaf Disc Preventative (Powdery Mildew on Wheat):
Wheat leaf segments cv. Kanzler were placed on agar in a 24-well plate and sprayed with the formulated test compound diluted in water at an application rate of 200 ppm. The leaf disks were inoculated by shaking powdery mildew infected plants above the test plates 1 day after application. The inoculated leaf disks were incubated at 20° C. and 60% relative humidity under a light regime of 24 h darkness followed by 12 h/12 h (dark/light) in a climate chamber and the activity of a compound was assessed as percent disease control compared to untreated when an appropriate level of disease damage appears on untreated check leaf segments (6-8 days after application). The following compounds gave at least 80% control of Blumeria graminis: E/E-2.168, E/E-2.474, E/E-2.002; 5.561; 2.561; E/E-2.208; 2.513; 2.559; 2.557; 2.556; 2.555; 2.374; 2.552; 2.537; 2.533; 2.530; 2.528; 2.526; 2.519; 2.510; 2.516; 2.514; E/E-5.167; E/E-3.002; 2.512; 2.511

[4] = tested on: Monographella nivalis (Microdochium nivale); assay: Monographella nivalis (Microdochium nivale) / liquid culture (foot rot cereals); assay type: cell-based; conditions: at ≦200 ppm, liquid culture PDB, inhibition of growth photometrically 4-5 days after application, read-out: control of Monographella nivalis
Procedure: Monographella nivalis (Microdochium nivale)/Liquid Culture (Foot Rot Cereals): Conidia of the fungus from cryogenic storage were directly mixed into nutrient broth (PDB potato dextrose broth). After placing a DMSO solution of test compound into a 96-well microtiter plate, the nutrient broth containing the fungal spores was added. The test plates were incubated at 24° C. and the inhibition of growth was determined photometrically 4-5 days after application. […].57; 2.513; 2.559; 2.558; 2.556; 2.555; 2.374; 2.553; 2.551 (fraction B); 2.551 (fraction A); 2.548; 2.544; 2.542; 2.541; 2.539; 2.536; 2.535; 2.533; 2.530; 2.528; 2.526; 2.525 (fraction B); 2.525 (fraction A); 2.524; 2.519; 2.518; 2.516; 2.514; E/E-5.167; 2.512; 2.514

[5] = tested on: Puccinia recondita f. sp. tritici; assay: Puccinia recondita f. sp. tritici / wheat / leaf disc preventative (brown rust); assay type: in vivo; conditions: foliar, wheat leaf segments cv Kanzler, inoculated 1 day after application, assessed 7-9 days after application
Procedure: Puccinia recondita f. sp. Tritici/Wheat/Leaf Disc Preventative (Brown Rust): Wheat leaf segments cultivated variety (cv) Kanzler were placed on agar in 24-well plates and sprayed with formulated test compound diluted in water at an application rate of 200 ppm. The leaf disks were inoculated with a spore suspension of the fungus 1 day after application. The inoculated leaf segments were incubated at 19° C. and 75% relative humidity under a light regime of 12/12 h (light/dark) in a climate cabinet and the activity of a compound was assessed as percent disease control compared to untreated when an appropriate level of disease damage appears in untreated check leaf segments (7-9 days after application). […]-2.508; 5.561; 2.561; 2.513; 2.559; 2.556; 2.555; 2.374; 2.544; 2.537; 2.530; 2.525 (fraction B); 2.519; 2.516; 2.514; E/E-5.167; E/E-3.002; 2.512; E/E-2.507

[6] = tested on: Mycosphaerella graminicola (Septoria tritici); assay: Mycosphaerella graminicola (Septoria tritici) / liquid culture (Septoria blotch); assay type: cell-based; conditions: Zymoseptoria tritici; at ≦200 ppm, liquid culture PDB, inhibition of growth photometrically 4-5 days after application; read-out: control of Mycosphaerella graminicola
Pyrenophora teres = Pyrenophora teres / barley / leaf disc preventative (net blotch); assay type: in vivo; conditions: foliar, barley leaf segments cv Hasso, inoculated two days after application, assessed 5-7 days after application
Procedure: Pyrenophora teres/Barley/Leaf Disc Preventative (Net Blotch): Barley leaf segments cv Hasso are placed on agar in a 24-well plate and sprayed with formulated test compound diluted in water at an application rate of 200 ppm. The leaf segments are inoculated with a spore suspension of the fungus two days after application of the test solution. The inoculated leaf segments are incubated at 20° C. and 65% relative humidity under a light regime of 12/12 h (light/dark) in a climate cabinet and the activity of a compound is assessed as disease control compared to untreated when an appropriate level of disease damage appears in untreated check leaf segments (5-7 days after application). […]-2.507; 5.561; 2.561; E/E-2.208; P.57; 2.513; 2.559; 2.558; 2.556; 2.555; 2.374; 2.552; 2.544; 2.537; 2.533; 2.530; 2.528; 2.519; 2.510; 2.516; 2.514; E/E-5.167; E/E-3.002; 2.512

Glomerella lagenarium = Glomerella lagenarium (Colletotrichum lagenarium) / liquid culture (anthracnose); assay type: cell-based; conditions: Colletotrichum orbiculare; at ≦200 ppm, liquid culture PDB, inhibition of growth photometrically 3-4 days after application; read-out: control of Glomerella lagenarium
Procedure: Glomerella lagenarium (Colletotfichum lagenarium)/Liquid Culture (Anthracnose): Conidia of the fungus from cryogenic storage were directly mixed into nutrient broth (PDB potato dextrose broth). After placing a DMSO solution of test compound into a 96-well microtiter, the nutrient broth containing the fungal spores was added. The test plates were incubated at 24° C. and the inhibition of growth is measured photometrically 3-4 days after application. […]-2.509; 5.561; 2.561; E/E-2.208; P.57; 2.513; 2.559; 2.556; 2.555; 2.374; 2.552; 2.548; 2.544; 2.541; 2.540; 2.539; 2.537; 2.536; 2.533; 2.531; 2.530; 2.528; 2.526; 2.519; 2.510; 2.516; 2.514; E/E-5.167; E/E-3.002; 2.512; 2.514; Z/E-2.474

[7] = tested on: Puccinia recondita f. sp. tritici; assay: Puccinia recondita f. sp. tritici / wheat / leaf disc curative (brown rust); assay type: in vivo; conditions: foliar, wheat leaf segments cv Kanzler, 200 ppm applied 1 day after inoculation, assessed 6-8 days after application
Procedure: Puccinia recondita f. sp. tritici/Wheat/Leaf Disc Curative (Brown Rust): Wheat leaf segments cv Kanzler were placed on agar in 24-well plates. The leaf segments were inoculated with a spore suspension of the fungus. The plates were stored in darkness at 19° C. and 75% relative humidity. The formulated test compound diluted in water was applied at an application rate of 200 ppm 1 day after inoculation. […]-2.508; 5.561; 2.561; E/E-2.208; 2.513; 2.559; 2.556; 2.555; 2.374; 2.552; 2.537; 2.519; 2.516; 2.514; […].002; 2.512; E/E-2.507

Cc1cc(C)nc(C(=NOCCCO/N=C2\CCCc3ccc(C)nc32)c2cc(C)cc(C)n2)c1 [Compound 2.557]
≥ 80%: inhibition of growth at up to 200 µg/mL (Gaeumannomyces graminis) | pest or weed control at 200 ppm [1] | inhibition of growth at up to 200 µg/mL [2] | pest or weed control at 200 ppm [3]

CC/C(=N/OCC(C)(C)CO/N=C1\CCCc2ccc(C)nc21)c1ncc(Cl)cc1F (single isomer, unassigned) [2.525 (fraction B)]
≥ 80%: inhibition of growth at up to 200 µg/mL [4] | pest or weed control at 200 ppm [5] | inhibition of growth at up to 200 µg/mL (Gaeumannomyces graminis) | inhibition of growth at up to 200 µg/mL [2] | inhibition of growth at up to 200 µg/mL [6]

Cc1ccc2c(n1)/C(=N/OCC(C)(C)CO/N=C/c1cccc(CO)n1)CCC2 [Compound 2.528]
≥ 80%: inhibition of growth at up to 200 µg/mL [4] | inhibition of growth at up to 200 µg/mL (Gaeumannomyces graminis) | pest or weed control at 200 ppm (Pyrenophora teres) | inhibition of growth at up to 200 µg/mL (Glomerella lagenarium) | inhibition of growth at up to 200 µg/mL [2] | pest or weed control at 200 ppm [3] | inhibition of growth at up to 200 µg/mL [6]

C/C(=N\OCC(C)(O)CO/N=C1\CCCc2ccc(C)nc21)c1cccc(C)n1 (stereo not shown) [E/E-14.002]
≥ 80%: pest or weed control at 200 ppm [7] | inhibition of growth at up to 200 µg/mL [2]

C/C(=N\OCC(C)(C)CO/N=C1\CCCc2ccc(C)nc21)c1cccc(-c2ccccc2Cl)n1 [Compound 2.544]
≥ 80%: inhibition of growth at up to 200 µg/mL [4] | pest or weed control at 200 ppm [5] | pest or weed control at 200 ppm (Pyrenophora teres) | inhibition of growth at up to 200 µg/mL (Glomerella lagenarium) | pest or weed control at 200 ppm [1] | inhibition of growth at up to 200 µg/mL [2] | inhibition of growth at up to 200 µg/mL [6]

Cc1ccc2c(n1)/C(=N/OCC(C)(C)CON=C(c1ccccn1)c1ccccn1)CCC2 [Compound 2.511]
≥ 80%: inhibition of growth at up to 200 µg/mL [2] | pest or weed control at 200 ppm [3]

Cc1ccc2c(n1)/C(=N/OCC(C)(C)CO/N=C(\c1ccccc1)c1ccccn1)CCC2 [Compound 2.510]
≥ 80%: inhibition of growth at up to 200 µg/mL (Gaeumannomyces graminis) | pest or weed control at 200 ppm (Pyrenophora teres) | inhibition of growth at up to 200 µg/mL (Glomerella lagenarium) | pest or weed control at 200 ppm [1] | inhibition of growth at up to 200 µg/mL [2] | pest or weed control at 200 ppm [3] | inhibition of growth at up to 200 µg/mL [6]
